From the NIST ThermoML archive (doi:10.1016/j.fluid.2013.08.029)
± gives the expanded uncertainty stated by the source.

Assay: xn = mol fraction of the nth substance listed
Details: 101 kPa, Liquid; for speed of sound: Sing-around technique in a fixed-path interferometer; for mass density: Vibrating tube method

CCCCCn1cc[n+](C)c1.F[B-](F)(F)F [1-methyl-3-pentyl-imidazolium tetrafluoroborate] + OCCO
Details | mass density [kg/m3] | speed of sound [m/s]
288.15 K, x1 = 0.0549 | 1127.51 ± 0.18 | 1659 ± 2.2
288.15 K, x1 = 0.1148 | 1135.95 ± 0.21 | 1639.3 ± 2.2
288.15 K, x1 = 0.2053 | 1145.61 ± 0.26 | 1617.1 ± 2.3
288.15 K, x1 = 0.3086 | 1153.94 ± 0.34 | 1599.3 ± 2.4
288.15 K, x1 = 0.4154 | 1160.64 ± 0.43 | 1587.3 ± 2.4
288.15 K, x1 = 0.5063 | 1165.13 ± 0.53 | 1580.3 ± 2.5
288.15 K, x1 = 0.6273 | 1170.27 ± 0.67 | 1573.1 ± 2.6
288.15 K, x1 = 0.7138 | 1173.4 ± 0.78 | 1569.8 ± 2.6
288.15 K, x1 = 0.7982 | 1176.33 ± 0.9 | 1567.9 ± 2.7
288.15 K, x1 = 0.8985 | 1179.69 ± 1.1 | 1565.9 ± 2.8
293.15 K, x1 = 0.0549 | 1123.89 ± 0.18 | 1646.9 ± 2.2
293.15 K, x1 = 0.1148 | 1132.23 ± 0.21 | 1627.2 ± 2.2
293.15 K, x1 = 0.2053 | 1141.81 ± 0.26 | 1604.6 ± 2.3
293.15 K, x1 = 0.3086 | 1150.12 ± 0.33 | 1586.9 ± 2.3
293.15 K, x1 = 0.4154 | 1156.84 ± 0.43 | 1575 ± 2.4
293.15 K, x1 = 0.5063 | 1161.54 ± 0.52 | 1567.7 ± 2.5
293.15 K, x1 = 0.6273 | 1166.54 ± 0.66 | 1560.8 ± 2.6
293.15 K, x1 = 0.7138 | 1169.75 ± 0.77 | 1558.1 ± 2.6
293.15 K, x1 = 0.7982 | 1172.71 ± 0.89 | 1556.8 ± 2.7
293.15 K, x1 = 0.8985 | 1176.11 ± 1.1 | 1555.3 ± 2.8
298.15 K, x1 = 0.0549 | 1120.27 ± 0.18 | 1634.8 ± 2.2
298.15 K, x1 = 0.1148 | 1128.52 ± 0.21 | 1615.1 ± 2.2
298.15 K, x1 = 0.2053 | 1138.01 ± 0.25 | 1592.4 ± 2.3
298.15 K, x1 = 0.3086 | 1146.31 ± 0.33 | 1574.7 ± 2.3
298.15 K, x1 = 0.4154 | 1153.05 ± 0.42 | 1562.7 ± 2.4
298.15 K, x1 = 0.5063 | 1157.88 ± 0.52 | 1555.5 ± 2.5
298.15 K, x1 = 0.6273 | 1162.86 ± 0.66 | 1548.3 ± 2.6
298.15 K, x1 = 0.7138 | 1166.1 ± 0.77 | 1544.8 ± 2.6
298.15 K, x1 = 0.7982 | 1169.1 ± 0.89 | 1542.3 ± 2.7
298.15 K, x1 = 0.8985 | 1172.64 ± 1 | 1540.3 ± 2.8
303.15 K, x1 = 0.0549 | 1116.63 ± 0.18 | 1622.8 ± 2.2
303.15 K, x1 = 0.1148 | 1124.81 ± 0.2 | 1602.9 ± 2.2
303.15 K, x1 = 0.2053 | 1134.22 ± 0.25 | 1580.2 ± 2.3
303.15 K, x1 = 0.3086 | 1142.5 ± 0.33 | 1562.5 ± 2.3
303.15 K, x1 = 0.4154 | 1149.27 ± 0.42 | 1550.6 ± 2.4
303.15 K, x1 = 0.5063 | 1154.21 ± 0.51 | 1543.2 ± 2.5
303.15 K, x1 = 0.6273 | 1159.19 ± 0.65 | 1536.5 ± 2.6
303.15 K, x1 = 0.7138 | 1162.48 ± 0.76 | 1532.8 ± 2.6
303.15 K, x1 = 0.7982 | 1165.5 ± 0.88 | 1530.3 ± 2.7
303.15 K, x1 = 0.8985 | 1169.12 ± 1 | 1528.5 ± 2.8
308.15 K, x1 = 0.0549 | 1113 ± 0.18 | 1609.9 ± 2.2
308.15 K, x1 = 0.1148 | 1121.09 ± 0.2 | 1590.9 ± 2.2
308.15 K, x1 = 0.2053 | 1130.44 ± 0.25 | 1568.1 ± 2.3
308.15 K, x1 = 0.3086 | 1138.71 ± 0.33 | 1550.4 ± 2.3
308.15 K, x1 = 0.4154 | 1145.51 ± 0.42 | 1538.5 ± 2.4
308.15 K, x1 = 0.5063 | 1150.46 ± 0.51 | 1531.2 ± 2.5
308.15 K, x1 = 0.6273 | 1155.52 ± 0.65 | 1524.5 ± 2.6
308.15 K, x1 = 0.7138 | 1158.87 ± 0.76 | 1521 ± 2.6
308.15 K, x1 = 0.7982 | 1161.91 ± 0.87 | 1518.5 ± 2.7
308.15 K, x1 = 0.8985 | 1165.59 ± 1 | 1516.9 ± 2.8
313.15 K, x1 = 0.0549 | 1109.35 ± 0.18 | 1598.2 ± 2.2
313.15 K, x1 = 0.1148 | 1117.37 ± 0.2 | 1578.9 ± 2.2
313.15 K, x1 = 0.2053 | 1126.66 ± 0.25 | 1556.1 ± 2.3
313.15 K, x1 = 0.3086 | 1134.93 ± 0.32 | 1538.4 ± 2.3
313.15 K, x1 = 0.4154 | 1141.76 ± 0.41 | 1526.5 ± 2.4
313.15 K, x1 = 0.5063 | 1146.71 ± 0.5 | 1519.5 ± 2.5
313.15 K, x1 = 0.6273 | 1151.88 ± 0.64 | 1512.8 ± 2.6
313.15 K, x1 = 0.7138 | 1155.26 ± 0.75 | 1509.2 ± 2.6
313.15 K, x1 = 0.7982 | 1158.35 ± 0.87 | 1506.4 ± 2.7
313.15 K, x1 = 0.8985 | 1162.04 ± 1 | 1505.3 ± 2.8
318.15 K, x1 = 0.0549 | 1105.67 ± 0.18 | 1586.7 ± 2.2
318.15 K, x1 = 0.1148 | 1113.63 ± 0.2 | 1566.9 ± 2.2
318.15 K, x1 = 0.2053 | 1122.88 ± 0.25 | 1544.2 ± 2.3
318.15 K, x1 = 0.3086 | 1131.15 ± 0.32 | 1526.6 ± 2.3
318.15 K, x1 = 0.4154 | 1138.02 ± 0.41 | 1514.6 ± 2.4
318.15 K, x1 = 0.5063 | 1142.8 ± 0.5 | 1507.7 ± 2.5
318.15 K, x1 = 0.6273 | 1148.22 ± 0.64 | 1501.5 ± 2.6
318.15 K, x1 = 0.7138 | 1151.65 ± 0.74 | 1497.7 ± 2.6
318.15 K, x1 = 0.7982 | 1154.78 ± 0.86 | 1495.5 ± 2.7
318.15 K, x1 = 0.8985 | 1158.38 ± 1 | 1494 ± 2.8
